Data published in patent US20240300977A1, “INHIBITORS OF DNA-DEPENDENT PROTEIN KINASE AND COMPOSITIONS AND USES THEREOF” (Intellia Therapeutics, Inc., priority 2021, published 2024).

Assays:
NK cells [1] = test: Percent editing at AAVS1 in NK cells by NGS; format: cell-based, human
Procedure: Genomic DNA was extracted using QuickExtract™ DNA Extraction Solution (Lucigen, Cat. QE09050) according to manufacturer's protocol.
To quantitatively determine the efficiency of editing at the target location in the genome, next generation sequencing was utilized to identify the presence of insertions and deletions introduced by gene editing. […] Primer sequence design was done as is standard in the field.
Additional PCR was performed according to the manufacturer's protocols (Illumina) to add chemistry for sequencing. The amplicons were sequenced on an Illumina MiSeq instrument. The reads were aligned to the human (e.g., hg38) reference genome after eliminating those having low quality scores. The resulting files containing the reads were mapped to the reference genome (BAM files), where reads that overlapped the target region of interest were selected and the number of wild-type reads versus the number of reads which contain an insertion or deletion (“indel”) was calculated.
The editing percentage (e.g., the “editing efficiency” or “percent editing”) is defined as the total number of sequence reads with insertions or deletions (“indels”) over the total number of sequence reads, including wild type.

NK cells [2] = test: GFP insertion at AAVS1 in NK cells, flow cytometry; format: cell-based, human; details: LNP + AAV, seven days
Procedure: NK cells were assessed for the impact of DNA protein kinase inhibitors (DNA-PKI) on indel and insertion rates. […] A subset of samples was also treated with AAV encoding a GFP coding sequence flanked by regions of homology to the AAVS1 edit site (SEQ ID NO: 16). NK cells were isolated from a commercially obtained leukopak using the EasySep Human NK Cell Isolation Kit ([…], Cat. No. 17955) according to the manufacturer's protocol. […] NK cells were plated at 50,000 cells per well in triplicate in OpTmizer supplemented as described above with DNA-PKI at concentrations indicated in Tables 10 and 11. […] For a subset of samples, AAV encoding GFP flanked by regions homologous to the AAVS1 edit site were added at a multiplicity of infection (MOI) of 600,000 genome copies following editing. At seven days post LNP composition treatment, cells were phenotyped by flow cytometry to measure GFP insertion rates. Briefly, NK cells were incubated with antibodies targeting CD3 (Biolegend, Cat. No. 317336) and CD56 (Biolegend, Cat. No. 318310). […] NK cells were gated on size, CD3/CD56 status, and GFP expression. High GFP-expressing cells were gated as targeted GFP […] locus and low GFP-expressing cells were gated as episomal retention.

T cells [3] = test: Off-target structural variation by UnIT; format: cell-based, human; details: T cells from Example 12, day 8 post-editing; TRAC sgRNA G013006
Excerpt: On day 8 post-editing, T cells from Example 12 from the untreated, unedited, Compound 3 and Compound 4 guides samples were collected, spun down and the pellets were directly used as input material for gDNA isolation using “Zymo Quick DNA/RNA Mag Beads Kit” (Zymo Cat. R2131). The UnIT structural variant characterization assay was applied to these gDNA samples. High molecular weight genomic DNA is simultaneously fragmented and sequence-tagged (‘tagmented’) with the Tn5 transposase and an adapter with a partial Illumina P5 sequence and a 12 bp unique molecular identifier (UMI). Two sequential PCRs using a primer to P5 and hemi-nested gene specific primers (GSP) imparting the Illumina the P7 sequence to create two Illumina compatible NGS libraries per sample (Illumina, Ref 15033624). Sequencing across both directions of the CRISPR/Cas9 targeted cut site with the two libraries allows the inference and quantification of structural variants in DNA repair outcomes after genome editing. If the two fragments were aligned to different chromosomes, the SV was classified as an “inter-chromosomal translocation.” The magnitude of structural variation was shown in FIG. 9A and Table 18.

T cells [4] = test: SpyCas9 TRAC editing (indel) in T cells by NGS with or without Compound 4; format: cell-based, human; details: day 4 NGS
Procedure: Upon thaw, T cells were plated at a density of 1.0×10^6 cells/mL in T cell growth media (TCGM) composed of CTS OpTmizer T Cell Expansion SFM and T Cell Expansion Supplement (ThermoFisher Cat. A1048501), 5% human AB serum (GeminiBio, Cat. 100-512) 1× Penicillin-Streptomycin, 1× Glutamax, 10 mM HEPES, 200 U/mL recombinant human interleukin-2 (Peprotech, Cat. 200-02), 5 ng/ml recombinant human interleukin 7 (Peprotech, Cat. 200-07), and 5 ng/mL recombinant human interleukin 15 (Peprotech, Cat. 200-15). T cells were rested in this media for 24 hours, at which time they were activated with T Cell TransAct™, human reagent (Miltenyi, Cat. 130-111-160) added at a 1:100 ratio by volume.
48 hours post-activation, T cells were harvested, centrifuged at 500 g for 5 min, and resuspended at a concentration of 6.41×10^5 T cells/mL in T cell plating media (TCPM): a serum-free version of TCGM containing 400 U/mL recombinant human interleukin-2 (Peprotech, Cat. 200-02), 10 ng/mL recombinant human interleukin 7 (Peprotech, Cat. 200-07), and 10 ng/mL recombinant human interleukin 15 (Peprotech, Cat. 200-15). 50 μL of T cells in TCPM (3.2×10^4 T cells) were added per well to be treated in flat-bottom 96-well plates.
LNPs were generated as described in Example 1 at a ratio of 50/38.5/10/1.5 (Lipid A/cholesterol/DSPC/PEG2k-DMG).
Mix “A” was serially diluted 1:2 in TCTM, and mixed 1:1 by volume with mix “B”. 25 μL of the resulting solution was added to 3.2×10^4 T cells in 96-well plates.
Next, a repair template in the form of an adeno-associated virus (AAV) encoding the HD3 TCR (SEQ ID NO: 18 was diluted in TCTM to 3.84×10^11 genome copies/mL in the presence or absence of Compound 4 diluted to 2 μM. 25 μL of the resulting solution was added to T cells that were treated with LNPs in the prior step. To enable editing assessments by NGS without the interference of repair templates, an arm of this experiment received 25 μL of TCTM with or without Compound 4 diluted to 2 μM in the absence of AAVs.
Following the addition of LNPs, repair templates and Compound 4, T cells were incubated at 37° C. for 48 hours, at which time T cells were centrifuged at 500 g for 5 min, resuspended in 200 μL of TCGM and returned to the incubator.

TRAC = details: human
T cells [5] = test: TRAC LNP editing and GFP insertion in activated T cells with DNA-PK inhibitors, flow cytometry; details: GFP positive of the CD3 negative T cells, day 5 post-edit

## Cc1cc2ncnn2cc1Nc1ncc2c(n1)n(C1CCC3(CC1)CC3)c(=O)n2C [Compound 4, 7-methyl-2-((7-methyl-[1,2,4]triazolo[1,5-a]pyridin-6-yl)amino)-9-(spiro[2.5]octan-6-yl)-7,9-dihydro-8H-purin-8-one]
NK cells [1]; DNA-PKI 0.125 uM
  Mean percent editing at AAVS1: 96.77%
NK cells [1]; DNA-PKI 0.5 uM
  Mean percent editing at AAVS1: 97.67%
NK cells [2]; DNA-PKI 0.125 uM
  Percent of NK cells with high GFP expression (Mean): 88.10%
NK cells [2]; DNA-PKI 0.5 uM
  Percent of NK cells with high GFP expression (Mean): 90.27%
T cells [3]
  Unintended Structural Variance (Average): 1.46%
T cells [4]; sgRNA 0 μg/mL, Spy Cas9 + Compound 4
  Mean TRAC Editing %: 0.20%
T cells [4]; sgRNA 0.026 μg/mL, Spy Cas9 + Compound 4
  Mean TRAC Editing %: 48.55%
T cells [4]; sgRNA 0.052 μg/mL, Spy Cas9 + Compound 4
  Mean TRAC Editing %: 63.45%
T cells [4]; sgRNA 0.104 μg/mL, Spy Cas9 + Compound 4
  Mean TRAC Editing %: 79.25%
T cells [4]; sgRNA 0.209 μg/mL, Spy Cas9 + Compound 4
  Mean TRAC Editing %: 89.00%
T cells [4]; sgRNA 0.418 μg/mL, Spy Cas9 + Compound 4
  Mean TRAC Editing %: 94.45%
T cells [4]; sgRNA 0.835 μg/mL, Spy Cas9 + Compound 4
  Mean TRAC Editing %: 96.15%
T cells [4]; sgRNA 1.67 μg/mL, Spy Cas9 + Compound 4 (2 μM stock, 25 μL added)
  Mean TRAC Editing %: 96.10%
TRAC
  Sites Validated: 0
T cells [5]; compound 0.0625 uM
  Mean % CD3^−/GFP+ Cells (n = 3): 58.13%
T cells [5]; compound 1 uM
  Mean % CD3^−/GFP+ Cells (n = 3): 80.07%
